In patent US12576083B2, “Combinational therapy of LSD1 inhibitors with P21 activators in the treatment of cancer” (Istituto Europeo di Oncologia S.r.l., priority 2017, dated 2026):
“Also recorded” adds a separate entry of the source.

What was measured:
[1] = test system: p21; assay: Western-blot of p21 in Kasumi cells; type: cell-based
Source text: FIGS. 7A-7F. […] (FIG. 7C) Relative proliferation of Kasumi cells infected with SCR (control) or p21 shRNA treated with MC2580. (FIG. 7D) Representative light micrograph show Wright-Giemsa staining of Kasumi cells after 1 week treatment with indicated inhibitors. (FIG. 7E) summary of cell-cycle status of Kasumi cells following 1 week treatment with indicated inhibitors. (FIG. 7F) Immunoblot of P21 in MC2580-treated Kasumi cells. (SCR=Scramble shRNA, NI=Not Infected, LSD1i=LSD1 inhibitor=MC2580).
(§1) Kasumi cells were treated with p21-shRNA, scramble shRNA (SCR), LSD1 inhibitor MC2580, p21-shRNA plus MC2580, scramble shRNA (SCR) plus MC2580. Non-infected (NI) Kasumi cells were included as control. The proliferation of the treated cells were quantified before treatment and post-treatment from day 2, day 4, and day 7 (FIG. 7C). The cells following the 1 week treatment were analyzed under light micrographs using Wright-Giemsa staining (FIG. 7D). Cell cycle analysis were performed following the 1 week treatment.

[2] = test system: p21; assay: Western-blot of p21 in NCI-H69 cells; type: cell-based
Procedure: (§2) FIGS. 8A-8D. […] (FIG. 8B) Relative proliferation of NCI-H69 cells infected with SCR (control) or p21 shRNA treated with MC2580. (FIG. 8C) Summary of cell-cycle status of NCI-H69 cells following 10 days treatment with indicated inhibitors. (FIG. 8D) Immunoblot of P21 in MC2580-treated NCI-H69 cells. (SCR=Scramble shRNA, NI=Not Infected, LSD1i=LSD1 inhibitor=MC2580).
(§3) NCI-H69 cells were treated with p21-shRNA, scramble shRNA (SCR), LSD1 inhibitor MC2580, p21-shRNA plus MC2580, scramble shRNA (SCR) plus MC2580. Non-infected (NI) NCI-H69 cells were included as control. The proliferation of the treated cells were quantified before treatment and post-treatment from day 2, day 4, day 6, day 8, and day 10 (FIG. 8B). Cell cycle analysis were performed following the 1 week treatment.

[3] = test system: CD11b gene; assay: CD11b gene expression in UF1 cells (mRNA normalized against GAPDH); type: cell-based
Procedure: FIGS. 2A-2E. […] (FIG. 2A) Relative proliferation of UF1 cells treated with MC2580 (2 μM) and/or retinoic acid (10 nM) for 1 week. (FIG. 2B) Representative light micrograph show Wright-Giemsa staining of UF1 cell after treatment for 1 week. […] Values are normalized against GAPDH. (FIG. 2D) Immunoblot of PML-RARα in treated UF1 cells with indicated inhibitors. LSD1 inhibitors induces differentiation without PML-RARα degradation. (tubulin serves as control). (FIG. 2E) summary of cell-cycle status of UF1 cells following 1 week treatment with indicated inhibitors. (retinoic acid low(l)=10 nM, LSD1i=LSD1 inhibitor=MC2580).
Acute promyelocytic leukemia (APL) UF1 cells were treated with 2 μM LSD1 inhibitor MC2580, 10 nM retinoic acid (RA), 2 μM LSD1 inhibitor MC2580 plus 10 nM RA, and DMSO (control) for 7 days. The proliferation of the treated cells were quantified before treatment and post-treatment from each of day 2 to day 7 (FIG. 2A). The cells following the 1 week treatment were analyzed under light micrographs using Wright-Giemsa staining (FIG. 2B). The LSD1-inhibition induced expression of CD11b gene expression were analyzed. The mRNA of CD11b of the treated cells under each condition were normalized using GAPDH (FIG. 2C). PML-RARα protein level in the treated cells was analyzed by immune-blotting using an antibody against PML-RARα. Immuno-blotting of tubulin was used as loading control. […]

[4] = test system: MMC-38B and MMC-34 cells; assay: Cell cycle analysis of MMC-38B and MMC-34 melanoma cells; type: cell-based, human; settings: MMC-38B and MMC-34, rescued by p21 knock-down
Procedure: FIG. 16B depicts cell-cycle status of melanoma cells analyzed in FIG. 16A.
MMC-38B and MMC-34 cells were treated with p21-shRNA (“P21KD-DMSO”), scramble shRNA (“SCR-DMSO”), scramble shRNA plus LSD1 inhibitor (MC2580) (“SCR-LSD1i”), or p21-shRNA plus MC2580 (“P21KD-LSD1i”). Tubulin was used as a loading control.

[5] = test system: NB4 cells; assay: NB4 cells treated with HDAC inhibitors with or without MC2580: proliferation, staining, cell cycle analysis; type: cell-based; settings: versus untreated control cells (Scr-DMSO), 1 week treatment
Source text: FIGS. 10A-10D. […] (FIG. 10A) Relative proliferation of NB4 cells infected with SCR (control) or p21 shRNA and treated with HDAC inhibitor and/or MC2580. (FIG. 10B and FIG. 10C) Representative light micrograph show Wright-Giemsa staining of NB4 cells infected with SCR (control) or p21 shRNA and treated with HDAC inhibitor and/or MC2580. (FIG. 10D) Summary of cell-cycle status of NB4 cells infected with SCR (control) or p21 shRNA and treated with HDAC inhibitor and/or MC2580. (SCR=Scramble shRNA, NI=Not Infected, LSD1i=LSD1 inhibitor=MC2580).
NB4 cells were treated with HDAC inhibitors, trichostatin A (TSA) and suberoylanilide hydroxamic acid (SAHA), in combination with p21-shRNA or scramble shRNA (SCR), with or without LSD1 inhibitor MC2580. NB4 cells with p21 knock-down without HDAC inhibitor treatment (p21KD-DMSO), NB4 cells without p21 knock-down and without HDAC inhibitor treatment (Scr-DMSO) were included as control. The proliferation of the treated cells were quantified before treatment and post-treatment from day 2, day 4, and day 6 (FIG. 10A). The treated cells were analyzed under light micrographs using Wright-Giemsa staining (FIG. 10B and FIG. 10C). Cell cycle analysis were performed following the 1 week treatment.

[6] = test system: p21; assay: p21 protein (Western-blot) and p21 gene expression in UF1 cells; type: cell-based
Procedure: FIGS. 6A-6B. LSD1 inhibition leads to further upregulation of P21 RNA and protein level but not in P21KD cells. (FIG. 6A) Immunoblot of P21 in MC2580-treated UF1 cells. […] (SCR=Scramble shRNA, NI=Not Infected, LSD1i=LSD1 inhibitor=MC2580).
UF1 cells were treated with p21-shRNA, scramble shRNA (SCR), LSD1 inhibitor MC2580, p21-shRNA plus MC2580, scramble shRNA (SCR) plus MC2580. Non-infected (NI) UF1 cells were included as control. Immuno-blotting of tubulin was used as loading control.

[7] = test system: Kasumi cells; assay: Cell cycle analysis of Kasumi cells; type: cell-based; settings: 1 week treatment
Procedure: as §1

[8] = test system: small cell lung carcinoma NCI-H69 cells; assay: Cell cycle analysis of NCI-H69 cells; type: cell-based; settings: 1 week treatment
Procedure: as §2, §3

**Q.** How did the “p21 protein level in Kasumi cells” value [1] turn out when `NC1CC1c1ccc(NC(=O)C(Cc2ccccc2)NC(=O)OCc2ccccc2)cc1` (stereo not drawn) [MC2580] was run?
**A.** increased

**Q.** What about the “p21 protein level in NCI-H69 cells” value [2] of the same compound?
**A.** increased

**Q.** What about the “expression of the CD11b gene (myeloid differentiation marker)” value [3] of the same compound?
**A.** induces expression of the CD11b gene

**Q.** What about the “cell cycle of human primary melanoma cells” value [4] of the same compound?
**A.** cell cycle arrest

**Q.** What about the “NB4 cells arrested at the G0/G1 phase, LSD1 inhibitor alone” value [5] of the same compound?
**A.** More NB4 cells were arrested at the G0/G1 phase

**Q.** And the “p21 gene (CDKN1A) expression in UF1 cells” value [6]?
**A.** induces p21 expression; also recorded: expressed at a higher level

**Q.** And the “p21 protein level in UF1 cells” value ([6]; Western-blot, tubulin loading control)?
**A.** increased

**Q.** What about the “Kasumi cells arrested at the G0/G1 phase” value [7] of the same compound?
**A.** More Kasumi cells were arrested at the G0/G1 phase

**Q.** And the “NCI-H69 cells arrested at the G0/G1 phase” value [8]?
**A.** More NCI-H69 cells were arrested at the G0/G1 phase
